Assay results reported in patent US9187424B1, “Aryl dihydropyridinones and piperidinone MGAT2 inhibitors” (Bristol-Myers Squibb Company, priority 2011, dated 2015).

Columns and labels:
[1] = molecular target: T1, Human MGAT-2 (Homo sapiens (Human), UniProt Q3SYC2); test: MGAT LCMS Assay (human MGAT-2); type: biochemical; conditions: human MGAT-2 membranes expressed in Sf9 cells; 2-oleoylglycerol and oleoyl-Coenzyme A; read-out: h-MGAT2 IC50 (nM) LCMS Assay;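 further: diolein product quantified by LC/MS with positive APCI, expressed as peak area ratio versus an internal standard, and this ratio used to derive IC50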
T1 sequence (Q3SYC2 whole entry): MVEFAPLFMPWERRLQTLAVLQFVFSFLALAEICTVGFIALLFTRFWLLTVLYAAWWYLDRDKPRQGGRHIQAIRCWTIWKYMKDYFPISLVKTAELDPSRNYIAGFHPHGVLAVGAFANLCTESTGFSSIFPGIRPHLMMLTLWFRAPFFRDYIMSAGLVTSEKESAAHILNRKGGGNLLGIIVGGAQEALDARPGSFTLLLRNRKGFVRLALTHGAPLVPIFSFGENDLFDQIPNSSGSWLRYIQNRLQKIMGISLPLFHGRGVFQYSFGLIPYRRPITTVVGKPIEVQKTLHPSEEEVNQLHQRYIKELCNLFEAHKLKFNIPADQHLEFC

[2] = molecular target: T1, Human MGAT-2; test: MGAT SPA Assay; type: biochemical; conditions: membranes from Sf9 cells expressing recombinant human MGAT2; 2-monooleoylglycerol and [3H]-oleoyl-CoA;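 further: inhibition scaled between DMSO vehicle as full MGAT2 activity and membranes of uninfected Sf9 cells as blank, IC50 fitted by logistic curve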

SMILES	IC50 [1] [nM]	IC50 [2] [nM]
CCCCCc1ccc(C2(C(F)(F)F)CC(c3ccc(C)cc3)=C(C(=O)Nc3ccc(F)cc3)C(=O)N2)cc1 (centres unmarked) [Example 51]	13	63
Cc1ccc(C2=C(C(=O)Nc3ccc(F)cc3)C(=O)NC(c3ccc(Oc4ncccn4)cc3)(C(F)(F)F)C2)cc1 (centres unmarked) [Example 52]	99	477
Cc1ccc(C2=C(C(=O)Nc3ccc(F)cc3)C(=O)NC(c3ccc(OCc4ccccc4)cc3)(C(F)(F)F)C2)cc1 (centres unmarked) [Example 54]	20	258
Cc1ccc(C2=C(C(=O)Nc3ccccc3Cl)C(=O)NC(c3ccc(OCCCC(F)(F)F)cc3)(C(F)(F)F)C2)cc1 (centres unmarked) [Example 60]	12	441
N#CC1=C(c2cccc(Cl)c2)CC(c2ccc(OCCCC(F)(F)F)cc2)(C(F)(F)F)NC1=O (centres unmarked) [Example 68]	1280	7520
N#CC1=C(c2cccc(C#N)c2)CC(c2ccc(OCCCC(F)(F)F)cc2)(C(F)(F)F)NC1=O (centres unmarked) [Example 69]	983	9230
N#CC1=C(c2ccc(C(F)(F)F)cc2)CC(c2ccc(OCCCC(F)(F)F)cc2)(C(F)(F)F)NC1=O (centres unmarked) [Example 75]	209	873
Cc1ccc(C2=C(C(=O)Nc3ccc(C(F)(F)F)cc3)C(=O)NC(c3ccc(OCCCC(F)(F)F)cc3)(C(F)(F)F)C2)cc1 (centres unmarked) [Example 86]	1	201
Cc1ccc(C2=C(C#N)C(=O)NC(c3ccc(OCC(F)(F)F)cc3)(C(F)(F)F)C2)cc1 (centres unmarked) [Example 89]	20	731
COc1ccc(C2=C(C#N)C(=O)NC(c3ccc(OCCCC(F)(F)F)cc3)(C(F)(F)F)C2)c(F)c1 (centres unmarked) [Example 91]	2	916
COc1ccc(C2=C(c3nn[nH]n3)C(=O)NC(c3ccc(OCCCC(F)(F)F)cc3)(C(F)(F)F)C2)c(F)c1 (centres unmarked) [Example 95]	43	95
O=C1NC(c2ccc(OCCCC(F)(F)F)cc2)(C(F)(F)F)CC(c2ccc(C(F)(F)F)cc2)=C1c1nn[nH]n1 (centres unmarked) [Example 98]	69	154
O=C1NC(c2ccc(OCCCC(F)(F)F)cc2)(C(F)(F)F)CC(c2ccc(Cl)cc2)=C1c1nn[nH]n1 (centres unmarked) [Example 101]	108	379
Cc1ccc(C2=C(NC(=O)c3ccccc3C)C(=O)N[C@@](c3ccc(OCCCC(F)(F)F)cc3)(C(F)(F)F)C2)cc1 [Example 105, (S)-2-Methyl-N-(2-oxo-4-p-tolyl-6-(4-(4,4,4-trifluorobutoxyl)phenyl)-6-(trifluoromethyl)-1,2,5,6-tetrahydropyridin-3-yl)benzamide]	24	672
Cc1ccc(C2=C(C(=O)Nc3ccc(-c4nnn[nH]4)nc3)C(=O)NC(c3ccc(OCCCC(F)(F)F)cc3)(C(F)(F)F)C2)cc1 (centres unmarked) [Example 111]	7	9
Cc1ccc(C2=C(c3nn[nH]n3)C(=O)NC(c3ccc(Br)cc3)(C(F)(F)F)C2)cc1 (centres unmarked) [Example 112]	204	1300
Cc1ccc(C2=C(c3nn[nH]n3)C(=O)NC(c3ccc(OCCCC(F)(F)C(F)(F)F)cc3)(C(F)(F)F)C2)cc1 (centres unmarked) [Example 118]	4	32
Cc1ccc(C2=C(C(=O)Nc3nn[nH]n3)C(=O)NC(c3ccc(C4=CCCC4)cc3)(C(F)(F)F)C2)cc1 (centres unmarked) [Example 126]	33	1870
Cc1ccc(C2=C(C(=O)Nc3nn[nH]n3)C(=O)NC(c3cccc(C4=CCCCC4)c3)(C(F)(F)F)C2)cc1 (centres unmarked) [Example 127]	10	655
Cc1ccc(C2=C(C(=O)Nc3ccno3)C(=O)NC(c3ccc(OCCC(F)(F)F)cc3)(C(F)(F)F)C2)cc1 (centres unmarked) [Example 130]	1	20
N#CC1=C(c2ccc3ccccc3c2)CC(c2ccc(OCCCC(F)(F)F)cc2)(C(F)(F)F)NC1=O (centres unmarked) [Example 146]	25	397
O=C1NC(c2ccc(OCCCC(F)(F)F)cc2)(C(F)(F)F)CC(c2ccc(OC(F)F)cc2)=C1n1cnnn1 (centres unmarked) [Example 149]	6	53

More lines, in order of falling IC50 [1], values ahead:

IC50 [1] [nM]	IC50 [2] [nM]	SMILES
280	761	COc1cccc(C2=C(C#N)C(=O)NC(c3ccc(OCCCC(F)(F)F)cc3)(C(F)(F)F)C2)c1 (centres unmarked) [Example 64]
127	1520	COc1ccc(NC(=O)C2=C(c3ccc(C)cc3)C(F)(F)C(c3ccc(OCCC(F)(F)F)cc3)(C(F)(F)F)NC2=O)cc1 (centres unmarked) [Example 133]
95	242	Cc1ccc(C2=C(C(=O)Nc3ccc(F)cc3)C(=O)NC(c3ccc(-c4cnccn4)cc3)(C(F)(F)F)C2)cc1 (centres unmarked) [Example 50]
64	127	Cc1ccc(C2=C(C(=O)Nc3ccc(F)cc3)C(=O)NC(c3ccc(Oc4ccncn4)cc3)(C(F)(F)F)C2)cc1 (centres unmarked) [Example 49]
30	37	O=C1NC(c2ccc(OCCCC(F)(F)F)cc2)(C(F)(F)F)CC(c2ccc(OC(F)F)cc2)=C1c1nn[nH]n1 (centres unmarked) [Example 93]
24	156	Cc1ccc(C2=C(C(=O)Nc3ccc(Cl)cc3)C(=O)NC(c3ccc(OCCCC(F)(F)F)cc3)(C(F)(F)F)C2)cc1 (centres unmarked) [Example 62]
20	846	CCCCCNC(=O)C1=C(c2ccc(C)cc2)CC(c2ccc(OCCCC(F)(F)F)cc2)(C(F)(F)F)NC1=O (centres unmarked) [Example 55]
15	684	N#CC1=C(c2ccc3ccccc3c2)CC(c2ccc(OCCCC(F)(F)F)cc2)(C(F)(F)F)NC1=O (centres unmarked) [Example 73]
10	93	COc1ccc(C2=C(n3cnnn3)C(=O)NC(c3ccc(OCCCC(F)(F)F)cc3)(C(F)(F)F)C2)c(F)c1 (centres unmarked) [Example 142]
9	102	COc1ccc(NC(=O)C2=C(c3ccc(C)cc3C)CC(c3ccc(OCCCC(F)(F)F)cc3)(C(F)(F)F)NC2=O)cc1 (centres unmarked) [Example 148]
7	1460	Cc1ccc(C2=C(C(=O)Nc3ccc(C)c(F)c3)C(=O)NC(c3ccc(OCCCC(F)(F)F)cc3)(C(F)(F)F)C2)cc1 (centres unmarked) [Example 85]
5	28	COc1ccc(NC(=O)C2=C(c3ccc(C)cc3)CC(c3ccc(OCC(F)(F)F)cc3)(C(F)(F)F)NC2=O)cc1 (centres unmarked) [Example 88]
4	55	COc1ccc(C2=C(C#N)C(=O)NC(c3ccc(OCCCC(F)(F)F)cc3)(C(F)(F)F)C2)c(F)c1 (centres unmarked) [Example 81]
4	32	Cc1ccc(C2=C(c3ccc(OC(F)(F)F)cc3)C(=O)NC(c3ccc(OCCCC(F)(F)F)cc3)(C(F)(F)F)C2)cc1 (centres unmarked) [Example 94]
4	156	COc1ccc(C2=C(n3cnnn3)C(=O)NC(c3ccc(OCCCC(F)(F)F)cc3)(C(F)(F)F)C2)cc1 (centres unmarked) [Example 143]
2	133	Cc1ccc(NC(=O)C2=C(c3ccc(C)cc3)CC(c3ccc(OCCCC(F)(F)F)cc3)(C(F)(F)F)NC2=O)cc1 (centres unmarked) [Example 82]
2	115	COc1ccc(NC(=O)C2=C(c3ccc(C)cc3)CC(c3ccc(OCCCC(F)(F)F)cc3)(C(F)(F)F)NC2=O)cc1F (centres unmarked) [Example 84]
1	14	Cc1ccc(C2=C(C(=O)Nc3ccc(O)cc3)C(=O)NC(c3ccc(OCCCC(F)(F)F)cc3)(C(F)(F)F)C2)cc1 (centres unmarked) [Example 122]
